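Values below derive from 48-hour exposures of cells grown in 96-well plates, with endpoints linearly interpolated between the two concentrations bracketing the appropriate inhibition level. GI50 marks 50% less growth. TGI marks complete inhibition of growth.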
What was measured:
Experiment in all cases: growth of human tumour cells (NCI), 48 h
SK-MEL-2 melanoma = tested on: SK-MEL-2 melanoma
HCC-2998 colon = tested on: HCC-2998 colon
UACC-62 melanoma = tested on: UACC-62 melanoma
UO-31 renal = tested on: UO-31 renal
786-0 renal = tested on: 786-0 renal
SN12C renal = tested on: SN12C renal
SK-MEL-28 melanoma = tested on: SK-MEL-28 melanoma
NCI-H460 lung = tested on: NCI-H460 lung
HCT-15 colon = tested on: HCT-15 colon
HCT-116 colon = tested on: HCT-116 colon

| SMILES | GI50 (SK-MEL-2 melanoma) [µM] | TGI (SK-MEL-2 melanoma) [µM] | GI50 (HCC-2998 colon) [µM] | TGI (HCC-2998 colon) [µM] | GI50 (UACC-62 melanoma) [µM] | TGI (UACC-62 melanoma) [µM] | GI50 (UO-31 renal) [µM] | TGI (UO-31 renal) [µM] | GI50 (786-0 renal) [µM] | TGI (786-0 renal) [µM] | GI50 (SN12C renal) [µM] | TGI (SN12C renal) [µM] | GI50 (SK-MEL-28 melanoma) [µM] | TGI (SK-MEL-28 melanoma) [µM] | GI50 (NCI-H460 lung) [µM] | TGI (NCI-H460 lung) [µM] | GI50 (HCT-15 colon) [µM] | TGI (HCT-15 colon) [µM] | GI50 (HCT-116 colon) [µM] | TGI (HCT-116 colon) [µM] |
| --- | --- | --- | --- | --- | --- | --- | --- | --- | --- | --- | --- | --- | --- | --- | --- | --- | --- | --- | --- | --- |
| N#Cc1c(NN)n(C2OC(CO)C(O)C2O)c2ncnc(N)c12 (stereo not given) | 0.282 | 0.946 | 0.292 | 2.41 | 0.126 | 0.308 | 0.0417 | 0.774 | 0.228 | 4.77 | 0.151 | > 47.5 | 0.0312 | 0.216 | 0.032 | 0.412 | 0.0198 | – | – | – |
| COC(=O)C(=Cc1cc(OC)ccc1OC)C(=O)OC | – | 50.1 | – | 34 | – | 73.7 | – | 50.9 | – | 53.5 | – | 64.3 | – | 82.9 | – | 91.6 | – | > 100 | – | – |
| O=C(CCn1[nH]c(=O)c(Cl)c(Cl)c1=O)NO | – | > 100 | – | > 100 | – | > 100 | – | > 100 | – | > 100 | – | > 100 | – | > 100 | – | > 100 | – | > 100 | – | – |
| OC[C@H]1C[C@](O)(c2ccc(Cl)cc2)[C@@H](c2ccc(Cl)cc2)O1 | – | – | 23.8 | 52.9 | 16 | 31.6 | 19.4 | 50.3 | 22.4 | 55.9 | 17 | 35.8 | 28.9 | 92.3 | 20.2 | 48.7 | 31.7 | > 100 | 17.3 | 35.6 |
| Cn1cc(CO)c2c1C(=O)C=C(N1CC1)C2=O | – | – | < 0.0122 | 0.049 | < 0.01 | 0.0163 | – | – | < 0.01 | 0.108 | < 0.01 | 0.027 | < 0.0166 | 0.605 | < 0.01 | 1.27 | < 0.01 | 0.0818 | < 0.0106 | – |
| Cc1ccc(S(=O)(=O)N(CC(=O)O)c2ccccc2)cc1 | – | > 100 | – | > 100 | – | > 100 | – | > 100 | – | > 100 | – | > 100 | – | > 100 | – | > 100 | – | > 100 | – | – |
| CC(C)c1ccccc1NC(=O)CCc1n[nH]c(=S)o1 | – | – | – | > 100 | – | > 100 | – | > 100 | – | > 100 | – | > 100 | – | > 100 | – | > 80.1 | – | > 56.9 | – | > 100 |
| CN(C)c1nc2ccccc2[nH]1 | – | > 100 | – | > 100 | – | > 100 | – | > 100 | – | > 100 | – | > 100 | – | > 100 | – | > 100 | – | > 100 | – | – |
| Cn1c2c(c3ccccc31)C1CCCCCCC1C1C(=O)OC(=O)C21 (stereo not given) | – | – | – | 70.3 | – | > 100 | – | > 100 | – | > 100 | – | > 100 | – | > 100 | – | > 100 | – | > 100 | – | – |
| S=C1NC2(CCCCCC2)NN1c1ccccc1 | – | – | – | – | – | > 100 | – | > 100 | – | > 100 | – | > 100 | – | > 100 | – | > 100 | – | > 100 | – | – |
| O=C(O)CCC(=O)c1ccc[nH]1 | – | > 100 | – | – | – | > 100 | – | > 100 | – | > 100 | – | > 100 | – | – | – | > 100 | – | > 100 | – | > 100 |
| CC(C)c1ccc2c(c1)CC[C@@H]1[C@@](C)(C(=O)O)CCC[C@]21C | 2.91 | 16.1 | 6.07 | 22.3 | 4.87 | 18.4 | 2.76 | 12 | 4.58 | 17 | – | – | 5.8 | 22.3 | 5.07 | 18.4 | 6.38 | 19.6 | 6.9 | 19.8 |
| O=C(O)C1C2C=CC(O2)C1C(=O)NCc1ccccn1 (stereo not given) | – | > 100 | – | – | – | > 100 | – | > 100 | – | > 100 | – | > 100 | – | > 100 | – | > 100 | – | > 100 | – | > 100 |
| CN1CCN(CCOc2ccc(-c3cnc4c(-c5ccccc5F)cnn4c3)cc2)CC1 | 1.86 | 3.57 | 1.73 | 3.25 | 1.69 | 3.17 | 1.33 | 2.69 | 1.78 | 3.29 | 1.78 | 3.6 | 1.7 | 3.07 | 1.63 | 3.05 | 1.25 | 2.63 | – | – |
| O=S1(=O)C[C@H](O)[C@H](O)CS1 | – | – | – | > 100 | – | > 100 | – | > 100 | – | > 100 | – | > 100 | – | > 100 | – | > 100 | – | – | – | > 100 |
| C=C1C(=O)O[C@@H]2C[C@@H]1CC/C(C)=C/CC/C(C)=C/CC[C@@]2(C)O | 2.69 | 12.5 | 14 | 28.7 | 14 | 29.3 | 16.3 | 33.4 | 11.5 | 24 | – | – | 22.2 | 49.8 | 16.5 | 43.2 | 18.2 | 51.4 | 3.06 | 11.9 |
| COc1ccc(C(=O)C(c2ccc(OC)cc2)C2(O)C(=O)Nc3ccc([N+](=O)[O-])cc32)cc1 (stereo not given) | – | > 100 | – | – | – | > 100 | – | > 100 | – | > 100 | – | 24.4 | – | > 100 | – | > 100 | – | > 100 | – | > 100 |
| Cc1cc(CC(O)c2ccc(Cl)c(Cl)c2)nc(=O)[nH]1 (stereo not given) | – | > 100 | – | – | – | > 100 | – | > 100 | – | 38.7 | – | > 100 | – | > 100 | – | > 100 | – | > 100 | – | 54.2 |
| COc1cnc2c(c1)C(=O)c1c-2n(CCCNC(C)C)c(=O)c2cc(Cl)ccc12 | 13.3 | 34.9 | 1.37 | 2.85 | 0.303 | 1.91 | 0.498 | 2.04 | 0.438 | 1.98 | 0.417 | 2.11 | – | – | 0.0372 | 1.2 | 1.08 | 2.78 | 0.138 | 1.01 |
